Calls of active or inactive are those of the source.
Legend:
[1] = target: T1, Oxysterols receptor LXR-beta (Homo sapiens, UniProt P55055); format: functional, cell-based;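 also: agonist activity at LXR measured by a cell-based luminescence readout across a dose range, run as a counterscreen for daf-12 agonists; HEK293 cells with Gal4-LXR fusion and GAL4-driven luciferase reporter; potency for activation of Gal4-LXR reporter so compounds are agonists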
T1 sequence (P55055 whole entry): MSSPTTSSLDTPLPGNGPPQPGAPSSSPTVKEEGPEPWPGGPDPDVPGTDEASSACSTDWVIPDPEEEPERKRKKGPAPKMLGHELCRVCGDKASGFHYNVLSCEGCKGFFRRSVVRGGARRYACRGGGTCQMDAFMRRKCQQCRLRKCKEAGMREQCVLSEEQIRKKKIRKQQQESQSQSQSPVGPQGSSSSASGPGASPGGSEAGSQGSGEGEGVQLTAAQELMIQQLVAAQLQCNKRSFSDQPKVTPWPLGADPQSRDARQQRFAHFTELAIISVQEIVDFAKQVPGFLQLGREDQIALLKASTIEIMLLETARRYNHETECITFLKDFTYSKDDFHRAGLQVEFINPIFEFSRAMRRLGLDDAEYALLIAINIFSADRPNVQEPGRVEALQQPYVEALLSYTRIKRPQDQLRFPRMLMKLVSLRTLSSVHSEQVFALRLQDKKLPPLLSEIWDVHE

[2] = cytotoxicity in A549 cells, dose response, cytotoxicity control, cell-based, CellTiter-Glo luminescence, cherry-pick (AID 743484); format: functional
[3] = Vero cell cytotoxicity, dose response, cytotoxicity control for Vif-APOBEC3G degradation inhibitor project, Vero cells (AID 1117358); format: functional; conditions: Human immunodeficiency virus 1, Vero
Transthyretin = Transthyretin (Homo sapiens, UniProt P02766); assay: Luminescence-based cell-based high throughput dose response assay to identify activators of Transthyretin (TTR) transcription.; format: functional
[4] = target: E3 ubiquitin-protein ligase UHRF1 (Homo sapiens, UniProt Q96T88); assay: Counterscreen for inhibitors of 5-meCpG-binding domain protein 2 (MBD2): TRFRET-based biochemical high throughput dose response assay to identify inhibitors of binding of ubiquitin-like with PHD and ring finger domains 1 (UHRF1) to methylated oligonucleotide.
Sequence of E3 ubiquitin-protein ligase UHRF1 (Q96T88 whole entry, the tested form may be a part): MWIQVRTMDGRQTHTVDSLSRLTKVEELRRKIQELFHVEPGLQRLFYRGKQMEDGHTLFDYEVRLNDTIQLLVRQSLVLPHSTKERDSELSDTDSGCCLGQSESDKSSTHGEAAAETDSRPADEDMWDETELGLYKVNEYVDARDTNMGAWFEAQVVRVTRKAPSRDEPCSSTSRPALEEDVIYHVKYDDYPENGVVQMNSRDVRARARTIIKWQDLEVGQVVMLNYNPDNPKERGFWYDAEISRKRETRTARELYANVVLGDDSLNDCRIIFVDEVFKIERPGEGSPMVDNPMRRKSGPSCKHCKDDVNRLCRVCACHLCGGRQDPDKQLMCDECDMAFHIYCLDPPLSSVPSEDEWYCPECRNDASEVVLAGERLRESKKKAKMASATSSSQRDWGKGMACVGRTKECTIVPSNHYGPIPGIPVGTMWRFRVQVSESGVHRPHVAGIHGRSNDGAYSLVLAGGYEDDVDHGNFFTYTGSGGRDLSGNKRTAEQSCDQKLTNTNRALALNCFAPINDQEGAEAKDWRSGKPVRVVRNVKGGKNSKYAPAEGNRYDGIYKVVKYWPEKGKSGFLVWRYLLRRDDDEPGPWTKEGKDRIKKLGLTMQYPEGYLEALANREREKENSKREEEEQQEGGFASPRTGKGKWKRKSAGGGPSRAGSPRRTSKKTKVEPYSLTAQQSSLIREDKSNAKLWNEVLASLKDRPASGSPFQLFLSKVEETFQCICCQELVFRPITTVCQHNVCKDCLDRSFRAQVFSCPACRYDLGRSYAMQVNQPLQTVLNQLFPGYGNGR

[5] = Luminescence Cell-Based Dose Retest to Confirm Inhibitors of Cancer Stem Cells. [Related pubchem assays (depositor defined):AID2717, AID2721]; format: functional; conditions: Homo sapiens
CAAX prenyl protease 2 = CAAX prenyl protease 2 (Saccharomyces cerevisiae S288c, UniProt Q03530); format: biochemical
Sequence of CAAX prenyl protease 2 (Q03530 whole entry): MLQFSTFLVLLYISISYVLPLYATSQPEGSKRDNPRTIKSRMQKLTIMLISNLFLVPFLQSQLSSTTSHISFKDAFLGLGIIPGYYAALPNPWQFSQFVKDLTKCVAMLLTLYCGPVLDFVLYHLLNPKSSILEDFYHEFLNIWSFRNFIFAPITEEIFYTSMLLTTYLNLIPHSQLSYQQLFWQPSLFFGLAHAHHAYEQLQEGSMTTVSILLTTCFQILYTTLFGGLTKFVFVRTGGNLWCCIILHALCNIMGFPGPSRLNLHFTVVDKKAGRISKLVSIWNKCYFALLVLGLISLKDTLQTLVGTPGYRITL

[6] = HepG2 cell cytotoxicity, dose response, cytotoxicity control, ATP luminescence, cherry-pick, set 6 (AID 1053125); format: functional, cell-based
cells [7] = conditions: A549
cells [8] = conditions: HEK293
[9] = inhibitors of PGC1a acetylation in cells, dose response, cell-based, cherry-picked samples (AID 720514); format: functional;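 also: potency may reflect raised or lowered acetylation signal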
[10] = P. falciparum Dd2 growth inhibitors, dose response, SYBR Green, cherry-picked samples (AID 1159567); format: functional, cell-based
Paired box protein Pax-8 = Paired box protein Pax-8 (Homo sapiens, UniProt Q06710); assay: inhibitors of PAX8-driven TPO luciferase reporter, dose response, RMG-I cells, cherry-pick (AID 687027); format: functional, cell-based;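 also: luciferase reporter driven by Pax8 target thyroperoxidase promoter measured by SteadyGlo luminescence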
Sequence of Paired box protein Pax-8 (Q06710 whole entry): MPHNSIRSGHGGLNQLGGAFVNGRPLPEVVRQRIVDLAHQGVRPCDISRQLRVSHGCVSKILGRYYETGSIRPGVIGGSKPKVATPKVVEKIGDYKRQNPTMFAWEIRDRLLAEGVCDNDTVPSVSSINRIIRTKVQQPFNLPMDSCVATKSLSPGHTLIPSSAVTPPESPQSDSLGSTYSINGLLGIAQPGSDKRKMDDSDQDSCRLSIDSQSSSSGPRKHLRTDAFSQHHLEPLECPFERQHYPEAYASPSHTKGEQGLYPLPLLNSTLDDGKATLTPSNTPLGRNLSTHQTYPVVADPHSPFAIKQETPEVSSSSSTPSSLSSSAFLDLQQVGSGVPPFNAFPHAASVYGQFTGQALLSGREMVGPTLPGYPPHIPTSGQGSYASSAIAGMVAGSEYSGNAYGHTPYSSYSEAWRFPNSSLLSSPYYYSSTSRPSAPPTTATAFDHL

[11] = HepG2 cell cytotoxicity, dose response, cytotoxicity control, cherry-picked samples (AID 1159577); format: functional, cell-based
[12] = cytotoxicity in OVCAR8 ovarian cancer cells, dose response, PAX8 project, cell-based, plate reader, dry powder samples (AID 743197); format: functional; conditions: OVCAR-8
[13] = target: Metabotropic glutamate receptor 5 (Rattus norvegicus, UniProt P31424); assay: Identification of a glycine sulfonamide based non-MPEP site positive allosteric potentiator (PAM) of mGlu5 (calcium_assay).; format: functional
Sequence of Metabotropic glutamate receptor 5 (P31424 whole entry): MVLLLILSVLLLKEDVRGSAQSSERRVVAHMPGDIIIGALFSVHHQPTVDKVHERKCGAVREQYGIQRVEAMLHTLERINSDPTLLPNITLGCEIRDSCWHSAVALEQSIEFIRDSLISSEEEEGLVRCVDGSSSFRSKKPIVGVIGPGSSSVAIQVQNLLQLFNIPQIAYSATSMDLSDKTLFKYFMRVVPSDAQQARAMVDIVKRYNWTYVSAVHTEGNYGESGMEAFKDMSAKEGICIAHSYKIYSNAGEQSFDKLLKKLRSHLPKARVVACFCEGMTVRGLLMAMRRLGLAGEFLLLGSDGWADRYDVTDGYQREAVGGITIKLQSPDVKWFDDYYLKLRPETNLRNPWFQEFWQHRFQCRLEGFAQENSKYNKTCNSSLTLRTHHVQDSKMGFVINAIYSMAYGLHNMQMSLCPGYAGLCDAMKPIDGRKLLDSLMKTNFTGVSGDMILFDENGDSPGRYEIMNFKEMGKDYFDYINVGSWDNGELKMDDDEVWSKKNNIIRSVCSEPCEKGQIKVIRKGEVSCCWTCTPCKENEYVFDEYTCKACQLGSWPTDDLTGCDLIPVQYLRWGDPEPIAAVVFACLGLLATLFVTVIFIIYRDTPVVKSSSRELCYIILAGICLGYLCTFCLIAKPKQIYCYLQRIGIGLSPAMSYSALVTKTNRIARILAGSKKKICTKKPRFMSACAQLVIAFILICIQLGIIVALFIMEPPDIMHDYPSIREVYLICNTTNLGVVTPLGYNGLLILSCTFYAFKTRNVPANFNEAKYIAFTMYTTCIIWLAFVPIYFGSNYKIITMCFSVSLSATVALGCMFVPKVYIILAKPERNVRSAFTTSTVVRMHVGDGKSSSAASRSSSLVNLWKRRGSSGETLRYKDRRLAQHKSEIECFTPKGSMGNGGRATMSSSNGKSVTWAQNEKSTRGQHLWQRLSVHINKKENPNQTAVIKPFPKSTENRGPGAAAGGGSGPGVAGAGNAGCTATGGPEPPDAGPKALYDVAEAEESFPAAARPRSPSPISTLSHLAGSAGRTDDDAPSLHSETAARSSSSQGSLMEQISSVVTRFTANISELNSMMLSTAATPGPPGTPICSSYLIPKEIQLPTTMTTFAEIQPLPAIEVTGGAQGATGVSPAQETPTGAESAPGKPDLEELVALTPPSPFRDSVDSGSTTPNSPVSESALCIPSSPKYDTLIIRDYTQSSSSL

[14] = target: Muscarinic acetylcholine receptor M5 (Homo sapiens, UniProt P08912); assay: M5 receptor positive allosteric modulators, dose response, cell-based, concentration-response curve (AID 651878); format: functional
Sequence of Muscarinic acetylcholine receptor M5 (P08912 whole entry): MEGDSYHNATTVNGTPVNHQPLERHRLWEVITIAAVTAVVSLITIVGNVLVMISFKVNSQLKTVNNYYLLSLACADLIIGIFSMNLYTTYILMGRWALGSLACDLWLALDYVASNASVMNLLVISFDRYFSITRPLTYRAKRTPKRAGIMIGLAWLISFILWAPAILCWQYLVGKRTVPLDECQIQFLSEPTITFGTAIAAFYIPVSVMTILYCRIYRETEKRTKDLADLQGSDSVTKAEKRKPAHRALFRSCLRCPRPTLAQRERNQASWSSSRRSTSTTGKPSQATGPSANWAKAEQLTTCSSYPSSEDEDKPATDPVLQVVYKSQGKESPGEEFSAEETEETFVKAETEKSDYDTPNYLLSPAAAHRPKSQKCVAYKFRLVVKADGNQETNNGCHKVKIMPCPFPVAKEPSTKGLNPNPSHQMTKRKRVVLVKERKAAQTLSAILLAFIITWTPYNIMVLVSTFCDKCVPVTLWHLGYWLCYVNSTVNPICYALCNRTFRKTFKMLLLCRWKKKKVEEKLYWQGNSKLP

[15] = Late stage assay provider results from the probe development effort to identify selective inhibitors of heat shock protein 90 (HSP90): Absorbance-based cell proliferation assay in SKBR3 cells.; format: functional; conditions: SK-BR-3
[16] = Late stage assay provider results from the probe development effort to identify selective inhibitors of heat shock protein 90 (HSP90): Absorbance-based cell proliferation assay in MCF7 cells.; format: functional
[17] = Late-stage results from the probe development effort to identify antagonists of arginine vasopressin receptor 1a (AVPR1a): fluorescence-based cell-based dose response AVPR1a inhibition assay.; format: functional
Vasopressin V2 receptor = Vasopressin V2 receptor (Homo sapiens, UniProt P30518); assay: Late-stage results from the probe development effort to identify antagonists of arginine vasopressin receptor 1a (AVPR1a): fluorescence-based cell-based dose response AVPR2 inhibition counterscreen assay.; format: functional
Sequence of Vasopressin V2 receptor (P30518 whole entry): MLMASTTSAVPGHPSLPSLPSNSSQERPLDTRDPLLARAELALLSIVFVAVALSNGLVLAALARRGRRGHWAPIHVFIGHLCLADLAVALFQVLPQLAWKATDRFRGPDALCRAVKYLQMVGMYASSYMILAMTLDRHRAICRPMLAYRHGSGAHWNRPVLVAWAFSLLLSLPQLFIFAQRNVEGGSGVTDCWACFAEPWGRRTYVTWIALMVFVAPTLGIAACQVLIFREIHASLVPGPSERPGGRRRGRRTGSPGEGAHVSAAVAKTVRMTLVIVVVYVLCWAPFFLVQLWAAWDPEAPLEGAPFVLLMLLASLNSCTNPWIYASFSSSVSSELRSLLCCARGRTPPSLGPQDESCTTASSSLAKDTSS

Vasopressin V1b receptor = Vasopressin V1b receptor (Homo sapiens, UniProt P47901); assay: Late-stage results from the probe development effort to identify antagonists of arginine vasopressin receptor 1a (AVPR1a): fluorescence-based cell-based dose response AVPR1b inhibition counterscreen assay.; format: functional
Sequence of Vasopressin V1b receptor (P47901 whole entry): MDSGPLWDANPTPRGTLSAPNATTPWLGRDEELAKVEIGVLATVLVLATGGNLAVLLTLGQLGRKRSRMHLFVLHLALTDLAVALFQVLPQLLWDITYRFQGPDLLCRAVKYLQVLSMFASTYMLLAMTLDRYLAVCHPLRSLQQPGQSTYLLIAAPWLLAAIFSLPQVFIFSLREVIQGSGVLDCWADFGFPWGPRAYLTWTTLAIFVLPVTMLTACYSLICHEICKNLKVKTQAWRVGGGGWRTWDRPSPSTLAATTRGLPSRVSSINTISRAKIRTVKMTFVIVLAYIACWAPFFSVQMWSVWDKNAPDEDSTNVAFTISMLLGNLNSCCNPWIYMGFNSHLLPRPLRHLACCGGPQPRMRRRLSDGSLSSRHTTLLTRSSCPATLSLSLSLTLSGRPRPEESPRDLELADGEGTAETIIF

[18] = Late-stage results from the probe development effort to identify antagonists of arginine vasopressin receptor 1a (AVPR1a): fluorescence-based cell-based dose response OXTR inhibition counterscreen assay.; format: functional
[19] = target: NAD-dependent protein deacylase sirtuin-5, mitochondrial (Homo sapiens, UniProt Q9NXA8); assay: SIRT5 deacylase inhibitors, dose response, biochemical, fluorescence imaging, cherry-pick, set 6 (AID 720597)
Sequence of NAD-dependent protein deacylase sirtuin-5, mitochondrial (Q9NXA8 whole entry): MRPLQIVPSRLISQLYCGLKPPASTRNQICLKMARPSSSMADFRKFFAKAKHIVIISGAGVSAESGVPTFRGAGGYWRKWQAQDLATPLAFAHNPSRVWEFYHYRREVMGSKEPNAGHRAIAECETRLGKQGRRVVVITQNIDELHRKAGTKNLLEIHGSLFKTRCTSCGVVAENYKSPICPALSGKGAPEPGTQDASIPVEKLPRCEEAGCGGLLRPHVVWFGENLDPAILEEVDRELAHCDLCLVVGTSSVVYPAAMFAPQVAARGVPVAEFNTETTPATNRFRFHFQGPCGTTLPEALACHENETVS

[20] = A375 melanoma cell cytotoxicity, dose response, counter-screen for MITF inhibitor project, CellTiter-Glo luminescence, dry powder, set 2 (AID 624489); format: functional, cell-based; conditions: A-375;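 also: actives are compounds lowering A375 viability meaning general cytotoxicity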
[21] = A375 melanoma cell viability loss, dose response, counter-screen for MITF inhibitor project, CellTiter-Glo luminescence, dry powder, set 4 (AID 624364); format: functional, cell-based; conditions: A-375;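 also: A375 melanoma cells are MITF independent so this is a counter screen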
[22] = HepG2 cell cytotoxicity, dose response, cytotoxicity control, plate reader, dry powder samples (AID 1159569); format: functional, cell-based;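 also: inhibitor potency with signal falling toward the positive control level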
[23] = P. falciparum ATP4 D1247Y mutant growth inhibitors, dose response, NITD609-resistant line, SYBR Green, dry powder (AID 1159571); format: functional, cell-based;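 also: parasites synchronized at ring stage by sorbitol before testing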
[24] = P. falciparum 3D7-ScDHODH growth inhibitors, dose response, SYBR Green, dry powder samples (AID 1159570); format: functional, cell-based;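 also: parasite growth measured after 72 hours of compound exposure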
[25] = Plasmodium falciparum Dd2 Sybr green parasite growth Measured in Cell-Based and Microorganism Combination System Using Plate Reader - 2153-01_Inhibitor_Dose_DryPowder_Activity_Set3.; format: functional
[26] = P. falciparum Dd2 growth inhibitors, dose response, SYBR Green, dry powder samples (AID 1159566); format: functional, cell-based;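 also: potency for growth inhibition with lower SYBR green DNA signal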
cells [27] = format: functional, cell-based; conditions: INS-1E
[28] = HeLa 2N DNA content increase, dose response, cell-based, IC50 (AID 1117349); format: functional
[29] = Dose-response inhibition of insulin secretion in a rat insulinoma line at 5 mM glucose (AID 1117331); format: functional, cell-based; conditions: INS-1E
[30] = Concentration-dependent survival of SW480 colon cancer line, luminescence detection with CellTiter-Glo, half-maximal inhibitory concentration (AID 1117338); format: functional
[31] = CellTiter-Glo luminescent dose response of DLD-1 viability loss (AID 1117352); format: functional
[32] = cytotoxicity toward Colo320 cells – cell-based, CellTiter-Glo luminescence, IC50, dose response (AID 1117334); format: functional; conditions: COLO 320
[33] = HeLa 4N DNA content increase, dose response, cell-based, IC50 (AID 1117351); format: functional
[34] = RKO cell viability reduction, dose response, CellTiter-Glo luminescence (AID 1117322); format: functional
[35] = SNU-C1 cell viability reduction, dose response, CellTiter-Glo luminescence (AID 1117323); format: functional, cell-based
[36] = cytotoxicity toward HCT116 cells – cell-based, CellTiter-Glo luminescence, IC50, dose response (AID 1117332); format: functional; conditions: HCT-116
[37] = Glucagon-like peptide 1 release potency, NCI-H716 cell line, dose-response, half-maximal inhibitory concentration (AID 1117344); format: functional, cell-based
[38] = half-maximal inhibitory concentration for glucagon-like peptide-1 release, STC-1 cell line, dose-response (AID 1117345); format: functional, cell-based
[39] = HCT116 cell viability decrease, GSK3B pretreatment – CellTiter-Glo, IC50, dose response (AID 1117339); format: functional; conditions: HCT-116
[40] = cytotoxicity toward HT-29 cells – cell-based, CellTiter-Glo luminescence, IC50, dose response (AID 1117330); format: functional

## N#Cc1c(N)nc(N)nc1Nc1ccc(Br)cc1
[1]
  EC50: > 67.4 µM (inactive)

## Cc1cc(C)c(C#N)c(N2CCN(c3ccccc3)CC2)n1
[2]
  AC50: > 52 µM (inactive)

## CC1CCCCN1C(=O)c1ccc(S(=O)(=O)N2CCCCC2C)cc1 (stereo not drawn)
[3]
  CC50: > 40 µM (active)

## Cc1cccc(N(C)c2ncnc3onc(-c4ccc(F)cc4)c23)c1C
Transthyretin
  EC50: > 167 µM (inactive)

## COc1ccc2c(=O)c3c(=O)n(-c4ccccc4)c(-c4ccc(C)cc4)nc3oc2c1
[4]
  IC50: > 0.541 µM (active)

## CCCCCCSc1cc(-c2nc3cc(C)ccn3c2NCCCC)ccc1OC
[5]
  AC50: 7.54 µM (active)
CAAX prenyl protease 2
  AC50: 19.8 µM (active)
[6]
  AC50: 30.3 µM (active)
Cells [7]
  AC50: 45.6 µM (active)
Cells [8]
  AC50: 45.7 µM (active)

## O=C(Nc1ccc(C(F)(F)F)cc1)N1C[C@@H]2N[C@H](C1)[C@@H]2c1ccc(-c2cccc(F)c2)cc1
[9]
  AC50: 4.04 µM (active)
[10]
  AC50: 3.45 µM (active)
Paired box protein Pax-8
  AC50: 22.4 µM (active)
[11]
  AC50: 3.52 µM (active)

## C[C@H](CO)N1C[C@H](C)[C@@H](CN(C)CC2CCCCC2)Oc2c(NC(=O)CCCCCC(=O)Nc3ccccc3N)cccc2C1=O
[12]
  AC50: 46.8 µM (active)
Paired box protein Pax-8
  AC50: 11.1 µM (active)

## CS(=O)(=O)N(CC(=O)NC1CCC1)c1cc(C(F)(F)F)ccc1Cl
[13]
  EC50: 1.39 µM

## O=C1C(=O)N(CCOc2ccc(C(F)(F)F)cc2)c2ccc(OC(F)(F)F)cc21
[14]
  EC50: 0.36 µM (active)

## CC(NC(=O)c1coc(=O)c(Br)c1)C1C2CCC3CC(C2)CC31 (stereo not drawn)
[15]
  IC50: 8.3 µM (active)
[16]
  IC50: 1.8 µM (active)

## COc1ccc(N(CC2CC2)C(=O)N2CCN(c3cc(Cl)ccc3C)CC2)cc1
[17]
  IC50: 0.0363 µM (active)
Vasopressin V2 receptor
  IC50: 11.3 µM (inactive)
Vasopressin V1b receptor
  IC50: 16.6 µM (inactive)
[18]
  IC50: 0.25 µM (active)

## C[C@H](CO)N1C[C@H](C)[C@@H](CN(C)C(=O)C2CCCCC2)OCCCC[C@H](C)Oc2ccc(NC(=O)Nc3ccc(F)cc3)cc2C1=O
[19]
  AC50: > 30 µM (inactive)

## CCN(CC)CCCNC1=C(Nc2ccccc2)C(=O)c2ccccc2C1=O
[20]
  AC50: 31 µM (active)
[21]
  AC50: 65 µM (active)

## CCCNC(=O)N1[C@H](C#N)[C@H](c2ccc(-c3cccc(OC)c3)cc2)[C@H]1CO
[22]
  AC50: > 100 µM (inactive)
[23]
  AC50: 0.0278 µM (active)
[24]
  AC50: 10.4 µM (active)
[25]
  AC50: 0.0751 µM (active)
[10]
  AC50: < 0.3 µM (active)
[26]
  AC50: 0.0154 µM (active)

## CN(C)CCOC(c1ccccc1)c1ccc(Br)cc1 (stereo not drawn) [BROMODIPHENHYDRAMINE]
Cells [27]
  IC50: > 33.3 µM (inactive)
[28]
  IC50: > 10 µM (inactive)
[29]
  IC50: 2.77 µM (active)
[30]
  IC50: > 20 µM (inactive)
[31]
  IC50: > 20 µM (inactive)
[32]
  IC50: > 20 µM (inactive)
[33]
  IC50: > 10 µM (inactive)
[34]
  IC50: > 20 µM (inactive)
[35]
  IC50: 3.1 µM (active)
[36]
  IC50: > 20 µM (inactive)

## O=C(O)c1cc(/N=N/c2ccc(O)c(C(=O)O)c2)ccc1O [OLSALAZINE]
[37]
  IC50: > 40 µM (inactive)
[38]
  IC50: 9.54 µM (inactive)

## Clc1ccc(C(Cn2ccnc2)OCc2ccsc2Cl)c(Cl)c1 (stereo not drawn) [TIOCONAZOLE]
[30]
  IC50: > 20 µM (inactive)
[31]
  IC50: > 20 µM (inactive)
[39]
  IC50: 2.84 µM (active)
[32]
  IC50: 5.23 µM (inactive)
[40]
  IC50: > 20 µM (inactive)
[34]
  IC50: 5.25 µM (inactive)
[35]
  IC50: 2.18 µM (active)
[36]
  IC50: 4.07 µM (active)

Source: ChEMBL document CHEMBL1201862, “PubChem BioAssay data set” (2004)
